For 15 molecules, DC50 and Dmax results are on record in patent US20260092061A1, “COMPOUNDS FOR TARGETED PROTEIN DEGRADATION” (Amphista Therapeutics Limited, priority 2022, published 2026).

In assay [1] the target is T1, BRD9 (Homo sapiens, UniProt Q9H8M2).
T1 sequence (Q9H8M2 1-597): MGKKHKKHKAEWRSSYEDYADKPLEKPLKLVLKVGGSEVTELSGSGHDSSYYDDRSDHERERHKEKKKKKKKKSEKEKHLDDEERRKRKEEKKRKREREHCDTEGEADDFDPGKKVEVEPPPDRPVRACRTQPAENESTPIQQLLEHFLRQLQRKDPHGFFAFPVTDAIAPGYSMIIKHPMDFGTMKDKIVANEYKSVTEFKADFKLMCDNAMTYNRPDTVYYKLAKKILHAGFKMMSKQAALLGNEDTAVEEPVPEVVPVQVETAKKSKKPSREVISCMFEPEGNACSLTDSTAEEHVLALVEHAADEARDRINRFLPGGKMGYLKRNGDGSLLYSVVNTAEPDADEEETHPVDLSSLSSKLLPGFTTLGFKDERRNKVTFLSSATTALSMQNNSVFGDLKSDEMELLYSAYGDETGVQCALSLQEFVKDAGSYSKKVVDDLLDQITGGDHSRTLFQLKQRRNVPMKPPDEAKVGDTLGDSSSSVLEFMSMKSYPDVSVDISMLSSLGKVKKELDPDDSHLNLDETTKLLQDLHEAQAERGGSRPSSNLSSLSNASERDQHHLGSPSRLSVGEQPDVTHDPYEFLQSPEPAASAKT
The assay can be described thus: Degradation of BRD9 (IF), immunofluorescence in MV4-11 cells, 24 hours (Assay Protocol 2). The format is cell-based. Further details: A suspension of MV4-11 cells (ATCC CRL-9591) was prepared; host or cells: MV4-11. Summed up: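 % BRD9 remaining, scaled between DMSO (high) and 100 nM CFT-8634 (low) control wells, derives from mean Alexa 647 contrast in central nuclei by high-content imaging. MV4-11 cells had 24 h compound exposure at 37° C. before PFA fixation, Triton permeabilisation and anti-BRD9 E4Q3F immunostaining.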

Assay [2] addresses T1, BRD9. The assay can be described thus: BRD9 degradation, HiBiT-BRD9 KI HEK293 (LgBiT) cells, NanoGlo Lytic Endpoint assay (Assay Protocol 1). It is filed as cell-based. Conditions: BRD9 degradation; for Dmax / Dmax at 1 µM: HEK293; for Dmax at 1 µM: 1 μM compound at 6 h of treatment, read-out: Assay 1 Dmax. Summed up: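 HiBiT-tagged BRD9 knock-in HEK293 (LgBiT) cells exposed to compounds for 6 h at 37 °C, 5% CO2. Residual BRD9 measured by HiBiT lytic luminescence. % BRD9 remaining normalised to DMSO-treated cells (high) and no-cell wells (low).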

Where [3] appears, read: Assay protocol 2, BRD9 degradation, read-out: DC50.
Setting [4] is: MV4-11, Assay protocol 2, BRD9 degradation, read-out: Dmax.
[5] abbreviates: Assay protocol 1, read-out: DC50.
Setting [6] is: Assay protocol 1, read-out: Dmax.
Setting [7] is: MV4-11, 24 h, Table 2, BRD9 degradation (IF), Assay Protocol 2, MV4-11 cells, read-out: Assay 2 DCmax.
Where [8] appears, read: Table 2, Assay Protocol 1, 6 h of treatment, read-out: Assay 1 DC50.
The mark [9] stands for this setting: MV4-11, Table 4, BRD9 degradation, determined according to Assay Protocol 2, read-out: Dmax^2.
The mark [10] stands for this setting: Table 4, BRD9 degradation, determined according to Assay Protocol 2, read-out: DC50^2.
Setting [11] is: Table 4, determined according to Assay Protocol 1, read-out: DC50^1.
Setting [12] is: Table 2, BRD9 degradation (IF), Assay Protocol 2, MV4-11 cells, read-out: Assay 2 DC50.
[13] abbreviates: Table 4, determined according to Assay Protocol 1, read-out: Dmax^1.

The term DC50 denotes the concentration giving 50% degradation. Regarding `COc1cc(-c2cn(C)c(=O)c(C)c2C)cc(OC)c1CN1CCN(Cc2cccc3c2CCN(C(=O)/C(C#N)=C/c2ncccc2C(F)(F)F)C3C)CC1` (mixture of isomers) [Compound B49, (E/Z)-2-(5-((4-(2,6-dimethoxy-4-(1,4,5-trimethyl-6-oxo-1,6-dihydropyridin-3-yl)benzyl)piperazin-1-yl)methyl)-1-methyl-1,2,3,4-tetrahydroisoquinoline-2-carbonyl)-3-(3-(trifluoromethyl)pyridin-2-yl)acrylonitrile], the 50% degradation concentration (DC50) was 10 to 25 nM in assay [1] (setting [3]) and less than 1.25 nM in assay [2] (setting [5]). The Dmax in assay [1] (setting [4]) and in assay [2] (setting [6]) was 40 to 70% each time.
In the case of `COc1cc(-c2cn(C)c(=O)c(C)c2C)cc(OC)c1CN1CCN(Cc2cccc(C3CCCN3C(=O)/C(C#N)=C/c3nc(C(F)(F)F)cs3)c2)CC1` (stereo not drawn) [Compound B56], the half-maximal degradation concentration (DC50) in assay [1] (setting [3]) and in assay [2] (setting [5]) was less than 1.25 nM in each case. For the same molecule, the Dmax in assay [1] (setting [4]) and in assay [2] (setting [6]) was more than 75% each time.
Consider `COc1cc(-c2cn(C)c(=O)c3cnccc23)cc(OC)c1CN1CCC(N(C)c2cccc3c2CCN(C(=O)/C(C#N)=C/C(C)(C)C)C3C)CC1` (stereo not drawn) [Compound A30], for which, in assay [1] (setting [7]), the Dmax is less than 50%. For the same molecule, in assay [2] (Table 2, Assay Protocol 1), the Dmax at 1 µM was in the range of 40 to 70%. Moreover, the DC50 in assay [2] (setting [8]) fell in the range of 1.25 to 10 nM.
Turning to `COc1cc(-c2cn(C)c(=O)c(C)c2C)cc(OC)c1CN1CC2CC1CN2C(=O)/C(C#N)=C/c1cccc(Br)n1` (mixture of isomers) [BRD9j, (E/Z)-3-(6-bromopyridin-2-yl)-2-(5-(2,6-dimethoxy-4-(1,4,5-trimethyl-6-oxo-1,6-dihydropyridin-3-yl)benzyl)-2,5-diazabicyclo[2.2.1]heptane-2-carbonyl)acrylonitrile], the Dmax in assay [1] (setting [9]) is more than 70%. Further, the 50% degradation concentration (DC50) in assay [1] (setting [10]) and in assay [2] (setting [11]) was less than 25 nM throughout.
Consider `COc1cc(-c2cn(C)c(=O)c(C)c2C)cc(OC)c1CN1CCC2(C1)CN(c1cccc3c1CCN(C(=O)/C(C#N)=C/C(C)(C)C)C3C)C2` (mixture of isomers) [Compound B40, (E/Z)-2-(5-(6-(2,6-dimethoxy-4-(1,4,5-trimethyl-6-oxo-1,6-dihydropyridin-3-yl)benzyl)-2,6-diazaspiro[3.4]octan-2-yl)-1-methyl-1,2,3,4-tetrahydroisoquinoline-2-carbonyl)-4,4-dimethylpent-2-enenitrile], for which the 50% degradation concentration (DC50) in assay [1] (setting [3]) and in assay [2] (setting [5]) was less than 1.25 nM throughout. The Dmax in assay [1] (setting [4]) and in assay [2] (setting [6]) was 40 to 70% each time.
As for `COc1cc(-c2cn(C)c(=O)c3cnccc23)cc(OC)c1CN1CCN(Cc2cccc3c2CCN(C(=O)/C(C#N)=C\C2(F)CC2)C3C)CC1` (mixture of isomers) [Compound A22, (E/Z)-2-(5-((4-(2,6-dimethoxy-4-(2-methyl-1-oxo-1,2-dihydro-2,7-naphthyridin-4-yl)benzyl)piperazin-1-yl)methyl)-1-methyl-1,2,3,4-tetrahydroisoquinoline-2-carbonyl)-3-(1-fluorocyclopropyl)acrylonitrile], in assay [1] (setting [7]), the Dmax was more than 75%. Further, the figures for the DC50 in assay [1] (setting [12]) and in assay [2] (setting [8]) were less than 1.25 nM and 1.25 to 10 nM, respectively. The Dmax at 1 µM in assay [2] (Table 2, Assay Protocol 1) was more than 75%.
In the case of `COc1cc(-c2cn(C)c(=O)c3ccsc23)cc(OC)c1CN1CCN(C(=O)/C(C#N)=C/C(C)(C)C)CC1` [BRD9w, (E/Z)-2-(4-(2,6-dimethoxy-4-(5-methyl-4-oxo-4,5-dihydrothieno[3,2-c]pyridin-7-yl)benzyl)piperazine-1-carbonyl)-4,4-dimethylpent-2-enenitrile], the Dmax in assay [1] (setting [9]) and in assay [2] (setting [13]) was more than 70% in each case. Also, the half-maximal degradation concentration (DC50) in assay [1] (setting [10]) and in assay [2] (setting [11]) was less than 25 nM throughout.
Take `COc1cc(-c2cn(C)c(=O)c3cnccc23)cc(OC)c1CN1CCN(Cc2cccc3c2CCN(C(=O)/C(C#N)=C/C2(C)CC2)C3C)CC1` (mixture of isomers) [Compound A26, (E/Z)-2-(5-((4-(2,6-dimethoxy-4-(2-methyl-1-oxo-1,2-dihydro-2,7-naphthyridin-4-yl)benzyl)piperazin-1-yl)methyl)-1-methyl-1,2,3,4-tetrahydroisoquinoline-2-carbonyl)-3-(1-methylcyclopropyl)acrylonitrile]: in assay [1] (setting [7]), the Dmax fell in the range of 40 to 70%. The 50% degradation concentration (DC50) was in the range of 25 to 300 nM in assay [1] (setting [12]) and 1.25 to 10 nM in assay [2] (setting [8]). Further, the Dmax at 1 µM in assay [2] (Table 2, Assay Protocol 1) lay in the range of 40 to 70%.
In the case of `COc1cc(-c2cn(C)c(=O)c(C)c2C)cc(OC)c1CN1CCN(C(=O)c2cccc(C3CCCN3C(=O)/C(C#N)=C/c3nccs3)c2)CC1` (stereo not drawn) [Compound B23], the DC50 was 1.25 to 10 nM in assay [1] (setting [3]) and 10 to 25 nM in assay [2] (setting [5]). Moreover, the Dmax in assay [1] (setting [4]) was more than 75%; in assay [2] (setting [6]), 70 to 75%.
As for `COc1cc(-c2cn(C)c(=O)c(C)c2C)cc(OC)c1CN1C2CC1CN(C(=O)/C(C#N)=C/C1(C(F)(F)F)CCC1)C2` (mixture of isomers) [BRD9p, (E/Z)-2-(6-(2,6-dimethoxy-4-(1,4,5-trimethyl-6-oxo-1,6-dihydropyridin-3-yl)benzyl)-3,6-diazabicyclo[3.1.1]heptane-3-carbonyl)-3-(1-(trifluoromethyl)cyclobutyl)acrylonitrile], the Dmax in assay [1] (setting [9]) and in assay [2] (setting [13]) was more than 70% in each case.
On to `CCCC(c1cccc(C(=O)N2CCN(Cc3c(OC)cc(-c4cn(C)c(=O)c(C)c4C)cc3OC)CC2)c1)N(C)C(=O)/C(C#N)=C/c1nccs1` (mixture of isomers) [Compound B184, (E/Z)-2-cyano-N-(1-(3-(4-(2,6-dimethoxy-4-(1,4,5-trimethyl-6-oxo-1,6-dihydropyridin-3-yl)benzyl)piperazine-1-carbonyl)phenyl)butyl)-N-methyl-3-(thiazol-2-yl)acrylamide], for which the 50% degradation concentration (DC50) in assay [1] (setting [3]) was 1.25 to 10 nM. In addition, the Dmax in assay [1] (setting [4]) and in assay [2] (setting [6]) was 40 to 70% each time.
In the case of `COc1cc(-c2cn(C)c(=O)c3cnccc23)cc(OC)c1CN(C)Cc1ccc2c(c1)CCN(C(=O)/C(C#N)=C/c1cccc(Br)n1)C2C` (mixture of isomers) [Compound A66], the Dmax in assay [1] (setting [7]) is more than 75%. Moreover, the DC50 in assay [1] (setting [12]) and in assay [2] (setting [8]) was less than 1.25 nM throughout. The Dmax at 1 µM in assay [2] (Table 2, Assay Protocol 1) lay in the range of 40 to 70%.
Turning to `COc1cc(-c2cn(C)c(=O)c(C)c2C)cc(OC)c1CN1CC2CC(C1)N2Cc1cccc(C2CCCN2C(=O)/C(C#N)=C/c2cccc(Br)n2)c1` (mixture of isomers) [Compound B12, (E/Z)-3-(6-bromopyridin-2-yl)-2-(2-(3-((3-(2,6-dimethoxy-4-(1,4,5-trimethyl-6-oxo-1,6-dihydropyridin-3-yl)benzyl)-3,6-diazabicyclo[3.1.1]heptan-6-yl)methyl)phenyl)pyrrolidine-1-carbonyl)acrylonitrile], the DC50 lay in the range of 1.25 to 10 nM in assay [1] (setting [3]) and 10 to 25 nM in assay [2] (setting [5]). Also, the Dmax in assay [1] (setting [4]) and in assay [2] (setting [6]) was more than 75% in each case.
With `COc1cc(-c2cn(C)c(=O)c(C)c2C)cc(OC)c1CN1CCN(Cc2cccc3c2CCN(C(=O)/C(C#N)=C/C2CCOC2)C3C)CC1` (mixture of isomers) [Compound B94, (E/Z)-2-(5-((4-(2,6-dimethoxy-4-(1,4,5-trimethyl-6-oxo-1,6-dihydropyridin-3-yl)benzyl)piperazin-1-yl)methyl)-1-methyl-1,2,3,4-tetrahydroisoquinoline-2-carbonyl)-3-(tetrahydrofuran-3-yl)acrylonitrile], the half-maximal degradation concentration (DC50) in assay [1] (setting [3]) and in assay [2] (setting [5]) was 1.25 to 10 nM throughout. In addition, the Dmax in assay [1] (setting [4]) is 40 to 70%; in assay [2] (setting [6]), more than 75%.
On to `COc1cc(-c2cn(C)c(=O)c(C)c2C)cc(OC)c1CN1CC2CC(C1)N2C(=O)/C(C#N)=C/c1cccc(Br)n1` (mixture of isomers) [BRD9m, (E/Z)-3-(6-bromopyridin-2-yl)-2-(3-(2,6-dimethoxy-4-(1,4,5-trimethyl-6-oxo-1,6-dihydropyridin-3-yl)benzyl)-3,6-diazabicyclo[3.1.1]heptane-6-carbonyl)acrylonitrile], for which the half-maximal degradation concentration (DC50) was more than 200 nM in assay [1] (setting [10]) and less than 25 nM in assay [2] (setting [11]). Moreover, the Dmax in assay [2] (setting [13]) is more than 70%.
